Source: ChEMBL document CHEMBL3046626, “Antifungal chalcones and new caffeic acid esters from Zuccagnia punctata acting against soybean infecting fungi” (2004)
In brackets after ≈: the same amount, converted by molar mass.

Experiments:
Type in all cases: functional
Fusarium graminearum [1] = test: microbe, parasite or virus in culture; details: isolate CE169
Diaporthe longicolla = test: Antifungal activity against Diaporthe longicolla CE117 after 48 to 72 hr
Colletotrichum truncatum = test: Antifungal activity against Colletotrichum truncatum CE175 after 48 to 72 hr
Fusarium graminearum [2] = test: microbe, parasite or virus in culture; details: isolate CE171
Fusarium graminearum [3] = test: microbe, parasite or virus in culture; details: isolate CE170
Fusarium graminearum [4] = test: microbe, parasite or virus in culture; details: isolate CE135
Alternaria alternata = test: Antifungal activity against Alternaria alternata (CE172) after 48 to 72 hr
Fusarium equiseti = test: Antifungal activity against Fusarium equiseti (CE181) after 48 to 72 hr
Macrophomina phaseolina = test: Antifungal activity against Macrophomina phaseolina isolate CE173 after 48 to 72 hr

In the case of COc1c(O)ccc(C(=O)/C=C/c2ccccc2)c1O [LARREIN], the MIC (Fusarium graminearum [1]) is reported as 12.5 µg/mL (≈ 46.2 µM), the MIC (Diaporthe longicolla) is reported as 6.25 µg/mL (≈ 23.1 µM) and the MIC (Colletotrichum truncatum) is reported as 6.25 µg/mL (≈ 23.1 µM). For the same molecule, the MIC (Fusarium graminearum [2]) was 12.5 µg/mL (≈ 46.2 µM), the MIC (Fusarium graminearum [3]) was 25 µg/mL (≈ 92.5 µM) and the MIC (Fusarium graminearum [4]) was 12.5 µg/mL (≈ 46.2 µM). It also gave an MIC (Alternaria alternata) of 25 µg/mL (≈ 92.5 µM), an MIC (Fusarium equiseti) of 25 µg/mL (≈ 92.5 µM) and an MIC (Macrophomina phaseolina) of 50 µg/mL (≈ 185 µM).

CC(=O)N1CCN(c2ccc(OCC3COC(Cn4ccnc4)(c4ccc(Cl)cc4Cl)O3)cc2)CC1 (stereo unspecified) [KETOCONAZOLE] gave an MIC (Fusarium graminearum [1]) of 40 µg/mL (≈ 75.3 µM), an MIC (Diaporthe longicolla) of 0.5 µg/mL (≈ 0.941 µM) and an MIC (Colletotrichum truncatum) of 1.5 µg/mL (≈ 2.82 µM). For the same molecule, the MIC (Fusarium graminearum [2]) was 40 µg/mL (≈ 75.3 µM), the MIC (Fusarium graminearum [3]) was 40 µg/mL (≈ 75.3 µM) and the MIC (Fusarium graminearum [4]) was 40 µg/mL (≈ 75.3 µM). It also gave an MIC (Alternaria alternata) of 5 µg/mL (≈ 9.41 µM), an MIC (Fusarium equiseti) of 50 µg/mL (≈ 94.1 µM) and an MIC (Macrophomina phaseolina) of 50 µg/mL (≈ 94.1 µM).

Work on CC(CCc1ccc(O)cc1)OC(=O)/C=C/c1ccc(O)c(O)c1 (stereo unspecified) yielded an MIC (Fusarium graminearum [1]) of over 50 µg/mL, an MIC (Diaporthe longicolla) of 6.25 µg/mL (≈ 19 µM) and an MIC (Colletotrichum truncatum) of over 50 µg/mL. For the same molecule, the MIC (Fusarium graminearum [2]) was over 50 µg/mL, the MIC (Fusarium graminearum [3]) was over 50 µg/mL and the MIC (Fusarium graminearum [4]) was over 50 µg/mL. For the same molecule, the MIC (Alternaria alternata) was over 50 µg/mL, the MIC (Fusarium equiseti) was over 50 µg/mL and the MIC (Macrophomina phaseolina) was over 50 µg/mL.

O=C(/C=C/c1ccccc1)c1ccc(O)cc1O [2',4'-DIHYDROXYCHALCONE] showed an MIC (Fusarium graminearum [1]) of 25 µg/mL (≈ 104 µM), an MIC (Diaporthe longicolla) of 3.12 µg/mL (≈ 13 µM) and an MIC (Colletotrichum truncatum) of 6.25 µg/mL (≈ 26 µM). The MIC (Fusarium graminearum [2]) was 25 µg/mL (≈ 104 µM), the MIC (Fusarium graminearum [3]) was 25 µg/mL (≈ 104 µM) and the MIC (Fusarium graminearum [4]) was 25 µg/mL (≈ 104 µM). The MIC (Alternaria alternata) was 25 µg/mL (≈ 104 µM), the MIC (Fusarium equiseti) was 25 µg/mL (≈ 104 µM) and the MIC (Macrophomina phaseolina) was 50 µg/mL (≈ 208 µM).

Work on CO/C=C(/C(=O)OC)c1ccccc1Oc1cc(Oc2ccccc2C#N)ncn1 [AZOXYSTROBIN] yielded an MIC (Fusarium graminearum [1]) of 7.5 µg/mL (≈ 18.6 µM), an MIC (Diaporthe longicolla) of 0.05 µg/mL (≈ 0.124 µM) and an MIC (Colletotrichum truncatum) of 0.05 µg/mL (≈ 0.124 µM). The MIC (Fusarium graminearum [2]) was 0.4 µg/mL (≈ 0.992 µM), the MIC (Fusarium graminearum [3]) was 0.25 µg/mL (≈ 0.62 µM) and the MIC (Fusarium graminearum [4]) was 5 µg/mL (≈ 12.4 µM). The MIC (Alternaria alternata) was 2.5 µg/mL (≈ 6.2 µM), the MIC (Fusarium equiseti) was 12.5 µg/mL (≈ 31 µM) and the MIC (Macrophomina phaseolina) was 2.5 µg/mL (≈ 6.2 µM).

For COC(=O)N(OC)c1ccccc1COc1ccn(-c2ccc(Cl)cc2)n1 [PYRACLOSTROBIN], the MIC (Fusarium graminearum [1]) was 20 µg/mL (≈ 51.6 µM), the MIC (Diaporthe longicolla) was 0.01 µg/mL (≈ 0.0258 µM) and the MIC (Colletotrichum truncatum) was 0.04 µg/mL (≈ 0.103 µM). For the same molecule, the MIC (Fusarium graminearum [2]) was 0.05 µg/mL (≈ 0.129 µM), the MIC (Fusarium graminearum [3]) was 0.05 µg/mL (≈ 0.129 µM) and the MIC (Fusarium graminearum [4]) was 1 µg/mL (≈ 2.58 µM). It also gave an MIC (Alternaria alternata) of 0.4 µg/mL (≈ 1.03 µM), an MIC (Fusarium equiseti) of 12.5 µg/mL (≈ 32.2 µM) and an MIC (Macrophomina phaseolina) of 2.5 µg/mL (≈ 6.45 µM).

With CC(CCc1ccc(O)c(O)c1)OC(=O)/C=C/c1ccc(O)c(O)c1 (stereo unspecified) the MIC (Fusarium graminearum [1]) was over 50 µg/mL, the MIC (Diaporthe longicolla) was over 50 µg/mL and the MIC (Colletotrichum truncatum) was over 50 µg/mL. The MIC (Fusarium graminearum [2]) was over 50 µg/mL, the MIC (Fusarium graminearum [3]) was over 50 µg/mL and the MIC (Fusarium graminearum [4]) was over 50 µg/mL. For the same molecule, the MIC (Alternaria alternata) was over 50 µg/mL, the MIC (Fusarium equiseti) was over 50 µg/mL and the MIC (Macrophomina phaseolina) was over 50 µg/mL.

COC(=O)Nc1nc2ccccc2[nH]1 [CARBENDAZIM] showed an MIC (Diaporthe longicolla) of 0.01 µg/mL (≈ 0.0523 µM), an MIC (Colletotrichum truncatum) of 0.01 µg/mL (≈ 0.0523 µM) and an MIC (Fusarium graminearum [2]) of 0.4 µg/mL (≈ 2.09 µM). For the same molecule, the MIC (Fusarium graminearum [3]) was 0.75 µg/mL (≈ 3.92 µM), the MIC (Fusarium graminearum [4]) was 0.75 µg/mL (≈ 3.92 µM) and the MIC (Alternaria alternata) was 75 µg/mL (≈ 392 µM). It also gave an MIC (Fusarium equiseti) of 0.75 µg/mL (≈ 3.92 µM) and an MIC (Macrophomina phaseolina) of 0.25 µg/mL (≈ 1.31 µM).
